Data on 9 molecules can be found in patent publication US20260070945A1, “MACROCYCLIC IMMUNOMODULATORS” (Bristol-Myers Squibb Company, priority 2022, published 2026).

The structures appear in SMILES notation. *1 amine or outer side, *2 acyl side, *3 side chain or, on linkers, in order; H or OH if unused. Where a SMILES comes first, the peptide text is derived from it. Bridges are numbered along the chain shown (N, C = ends). [ ]: non-standard residue; d: D form. The star is where a group is joined. ξ: configuration not given here. Phe(4-COOH) = N[C@@H](Cc1ccc(C(=O)O)cc1)C(=O)O; Bip = N[C@@H](Cc1ccc(-c2ccccc2)cc1)C(=O)O; Phe(3-Me) = Cc1cccc(C[C@H](N)C(=O)O)c1; γGlu = O=C(O)[C@H](CCC(=O)[*:2])N[*:1]; Val(3-OH) = CC(C)(O)[C@H](N)C(=O)O; 4Pal = N[C@@H](Cc1ccncc1)C(=O)O; Cha = N[C@@H](CC1CCCCC1)C(=O)O; Cit = NC(=O)NCCC[C@H](N)C(=O)O; Ile(3ξ) = CCC(C)[C@H](N)C(=O)O; Thr(3ξ) = CC(O)[C@H](N)C(=O)O; 4Abz = Nc1ccc(C(=O)O)cc1; Carboxymethyl = O=C(O)C*; NMeA = CN[C@@H](C)C(=O)O; Orn = NCCC[C@H](N)C(=O)O; Aun = NCCCCCCCCCCC(=O)O; Dab = NCC[C@H](N)C(=O)O; Dap = NC[C@H](N)C(=O)O; AEEA = NCCOCCOCC(=O)O

By IC50 is commonly meant the point on the concentration scale where inhibition reaches its midpoint.

The target in one assay is T1, PD-1/PD-L1 interaction (PE-labeled human PD-L1-Ig binding to Jurkat cell line over-expressing human PD-1) (Homo sapiens, UniProt Q15116).
T1 construct: expressed in transfected cells; host or cells: Jurkat
T1 sequence (Q15116 25-288): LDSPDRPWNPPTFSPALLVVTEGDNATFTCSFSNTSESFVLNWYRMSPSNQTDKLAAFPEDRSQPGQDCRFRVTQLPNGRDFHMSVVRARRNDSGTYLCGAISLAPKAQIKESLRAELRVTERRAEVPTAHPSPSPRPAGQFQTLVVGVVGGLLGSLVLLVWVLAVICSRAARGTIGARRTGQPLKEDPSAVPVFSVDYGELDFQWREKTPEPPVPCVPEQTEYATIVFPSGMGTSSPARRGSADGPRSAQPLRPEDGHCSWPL
The assay can be described thus: Jurkat-PD-1 Cell Binding High-Content Screening Assay (CBA). The note with it: Jurkat-hPD-1 cells, PE-labeled PD-L1-Ig 20 nM final; read-out: Jurkat HPD1 PDL1 IC50. The method, then:
Example 2: Jurkat-PD-1 Cell Binding High-Content Screening Assay (CBA)
Phycoerythrin (PE) was covalently linked to the Ig epitope tag of human PD-L1-Ig and fluorescently-labeled PD-L1-Ig was used for binding studies with a Jurkat cell line over-expressing human PD-1 (Jurkat-PD-1). Briefly, 8×10^3 Jurkat-hPD-1 cells were seeded into 384 well plates in 20 μl of DMEM supplemented with 10% fetal calf serum. 100 nl of compound was added to cells followed by incubation at 37° C. for 2 hours. Then, 5 μl of PE-labeled PD-L1-Ig (20 nM final), diluted in DMEM supplemented with 10% fetal calf serum. After 1 hour incubation, cells were fixed with […] in dPBS containing 10 μg/ml Hoechst 33342 and then washed 3× in 100 μl dPBS. Data was collected and processed using a Cell Insight NXT High Content Imager and associated software.
Regarding `CCC(C)[C@@H]1NC(=O)[C@H](Cc2ccc(-c3ccccc3)cc2)NC(=O)[C@H](C(C)C)NC(=O)[C@H](Cc2c[nH]c3ccccc23)NC(=O)[C@H](CC(=O)O)NC(=O)[C@H](Cc2ccc(OCC(=O)O)cc2)NC(=O)[C@H](C(C)O)NC(=O)CSC[C@@H](C(=O)NCCOCCOCC(=O)N[C@@H](CCCCN)C(=O)NCCCCCCCCCCC(=O)O)NC(=O)[C@H](CO)NC(=O)[C@H](C(C)C)NC(=O)[C@H](CC2CCCCC2)NC(=O)[C@H](CCN)NC(=O)[C@@H](CC(C)C)NC(=O)[C@H](C)N(C)C1=O` (stereo partly drawn) [Example 2030] ({CH2CO}-[Thr(3ξ)]Y(Carboxymethyl)DWV[Bip][Ile(3ξ)][NMeA][dL][Dab][Cha]VSC[AEEA]K[Aun]-OH; thioether N-14), the IC50 was found to be 13.2 nM.
For the molecule `CCC(C)[C@@H]1NC(=O)[C@H](Cc2ccc(-c3ccccc3)cc2)NC(=O)[C@H](CC(C)C)NC(=O)[C@H](Cc2c[nH]c3ccccc23)NC(=O)[C@H](CC(=O)O)NC(=O)[C@H](Cc2ccc(OCC(=O)O)cc2)NC(=O)[C@H](Cc2ccncc2)NC(=O)CSC[C@@H](C(=O)NCCOCCOCC(=O)N[C@@H](CCC(=O)NCCCCCCCCCCC(=O)O)C(=O)O)NC(=O)[C@H](CO)NC(=O)[C@H](C(C)C)NC(=O)[C@H](CC2CCCCC2)NC(=O)[C@H](CCN)NC(=O)[C@@H](CC(C)C)NC(=O)[C@H](C)N(C)C1=O` (stereo partly drawn) [Example 2045] ({CH2CO}-[4Pal]Y(Carboxymethyl)DWL[Bip][Ile(3ξ)][NMeA][dL][Dab][Cha]VSC[AEEA][γGlu][Aun]-OH; thioether N-14), the IC50 came out at 26.9 nM.
As for `CC(C)C[C@@H]1NC(=O)[C@H](Cc2c[nH]c3ccccc23)NC(=O)[C@H](CC(=O)O)NC(=O)[C@H](Cc2ccncc2)NC(=O)[C@H](Cc2ccc(OCC(=O)O)cc2)NC(=O)CSC[C@@H](C(=O)Nc2ccc(C(=O)NCCCCCCCCCCC(=O)O)cc2)NC(=O)[C@H](CCCN)NC(=O)[C@H](C(C)C)NC(=O)[C@H](CC2CCCCC2)NC(=O)[C@H](CCN)NC(=O)[C@@H](CC(C)C)NC(=O)[C@H](C)N(C)C(=O)[C@H](C(C)C)NC(=O)[C@H](Cc2ccc(-c3ccccc3)cc2)NC1=O` [Example 1213] ({CH2CO}-Y(Carboxymethyl)[4Pal]DWL[Bip]V[NMeA][dL][Dab][Cha]V[Orn]C[4Abz][Aun]-OH; thioether N-14), the IC50 came out at 276 nM.
The same measure, in the same setting: as for `Cc1cccc(C[C@@H]2NC(=O)[C@H](CC(=O)O)NC(=O)[C@H](Cc3cnc[nH]3)NC(=O)[C@H](Cc3ccc(OCC(=O)O)cc3)NC(=O)CSC[C@@H](C(=O)NCCCCCCCCCCC(=O)O)NC(=O)[C@H](CCCNC(N)=O)NC(=O)[C@H](C(C)C)NC(=O)[C@H](CC3CCCCC3)NC(=O)[C@H](CCN)NC(=O)[C@@H](CC(C)C)NC(=O)[C@H](C)N(C)C(=O)[C@H](Cc3ccc(O)cc3)NC(=O)[C@H](Cc3ccc(-c4ccccc4)cc3)NC(=O)[C@H](CCC(N)=O)NC2=O)c1` [Example 2257] ({CH2CO}-Y(Carboxymethyl)HD[Phe(3-Me)]Q[Bip]Y[NMeA][dL][Dab][Cha]V[Cit]C[Aun]-OH; thioether N-14), the figure is 199 nM; as for `CC(C)C[C@@H]1NC(=O)[C@H](Cc2c[nH]c3ccccc23)NC(=O)[C@H](CC(=O)O)NC(=O)[C@H](Cc2ccc(C(=O)O)cc2)NC(=O)[C@H](Cc2ccc(OCC(=O)O)cc2)NC(=O)CSC[C@@H](C(=O)N[C@@H](CCCCN)C(=O)NCCOCCOCC(=O)NCCCCCCCCCCC(=O)O)NC(=O)[C@H](CO)NC(=O)[C@H](C(C)C)NC(=O)[C@H](CC2CCCCC2)NC(=O)[C@H](CCN)NC(=O)[C@@H](CC(C)C)NC(=O)[C@H](C)N(C)C(=O)[C@H](C(C)C)NC(=O)[C@H](Cc2ccc(-c3ccccc3)cc2)NC1=O` [Example 2096] ({CH2CO}-Y(Carboxymethyl)[Phe(4-COOH)]DWL[Bip]V[NMeA][dL][Dab][Cha]VSCK[AEEA][Aun]-OH; thioether N-14), 11.8 nM; as for `Cc1cccc(C[C@@H]2NC(=O)[C@H](CC(=O)O)NC(=O)[C@H](Cc3ccc(OCC(=O)O)cc3)NC(=O)[C@H](CN)NC(=O)CSC[C@@H](C(=O)N[C@@H](CCN)C(=O)NCCOCCOCC(=O)NCCCCCCCCCCC(=O)O)NC(=O)[C@H](CCC(=O)O)NC(=O)[C@H](C(C)(C)O)NC(=O)[C@H](CC3CCCCC3)NC(=O)[C@H](CCN)NC(=O)[C@@H](CC(C)C)NC(=O)[C@H](C)N(C)C(=O)[C@H](Cc3ccc(OCC(=O)O)cc3)NC(=O)[C@H](Cc3ccc(-c4ccccc4)cc3)NC(=O)[C@H](Cc3ccc(OCC(=O)O)cc3)NC2=O)c1` [Example 1426] ({CH2CO}-[Dap]Y(Carboxymethyl)D[Phe(3-Me)]Y(Carboxymethyl)[Bip]Y(Carboxymethyl)[NMeA][dL][Dab][Cha][Val(3-OH)]EC[Dab][AEEA][Aun]-OH; thioether N-14), 18.1 nM.
Still for that read-out and setting: as for `CC(C)C[C@@H]1NC(=O)[C@H](Cc2c[nH]c3ccccc23)NC(=O)[C@H](CC(=O)O)NC(=O)[C@H](Cc2ccc(C(=O)O)cc2)NC(=O)[C@H](Cc2ccc(OCC(=O)O)cc2)NC(=O)CSC[C@@H](C(=O)NCC(=O)N[C@@H](CCCCN)C(=O)NCC(=O)NCCCCCCCCCCC(=O)O)NC(=O)[C@H](CO)NC(=O)[C@H](C(C)C)NC(=O)[C@H](CC2CCCCC2)NC(=O)[C@H](CCN)NC(=O)[C@@H](CC(C)C)NC(=O)[C@H](C)N(C)C(=O)[C@H](C(C)C)NC(=O)[C@H](Cc2ccc(-c3ccccc3)cc2)NC1=O` [Example 1031] ({CH2CO}-Y(Carboxymethyl)[Phe(4-COOH)]DWL[Bip]V[NMeA][dL][Dab][Cha]VSCGKG[Aun]-OH; thioether N-14), the figure is 10.7 nM; as for `Cc1cccc(C[C@@H]2NC(=O)[C@H](CC(=O)O)NC(=O)[C@H](Cc3ccc(OCC(=O)O)cc3)NC(=O)[C@H](CCCNC(=N)N)NC(=O)CSC[C@@H](C(=O)N[C@H](CC(N)=O)C(=O)NCCCCCCCCCCC(=O)O)NC(=O)[C@H](C(C)C)NC(=O)[C@H](C(C)C)NC(=O)[C@H](CC3CCCCC3)NC(=O)[C@H](CCN)NC(=O)[C@@H](CC(C)C)NC(=O)[C@H](C)N(C)C(=O)[C@H](Cc3ccc(OCC(=O)O)cc3)NC(=O)[C@H](Cc3ccc(-c4ccccc4)cc3)NC(=O)[C@H](Cc3ccc(OCC(=O)O)cc3)NC2=O)c1` [Example 2360] ({CH2CO}-RY(Carboxymethyl)D[Phe(3-Me)]Y(Carboxymethyl)[Bip]Y(Carboxymethyl)[NMeA][dL][Dab][Cha]VVC[dN][Aun]-OH; thioether N-14), 26.9 nM.

Still in this assay, the particulars now being: PE-labeled PD-L1-Ig 20 nM final, Jurkat-hPD-1 cells; read-out: Jurkat HPD1 PDL1 IC50.
In the case of `Cc1cccc(C[C@@H]2NC(=O)[C@H](CC(=O)O)NC(=O)[C@H](Cc3ccc(C(=O)O)cc3)NC(=O)[C@H](C(C)O)NC(=O)CSC[C@@H](C(=O)N[C@@H](CCN)C(=O)NCCOCCOCC(=O)NCCOCCOCC(=O)NCCCCCCCCCCC(=O)O)NC(=O)[C@H](CCC(=O)O)NC(=O)[C@H](C(C)C)NC(=O)[C@H](CC3CCCCC3)NC(=O)[C@H](CCN)NC(=O)[C@@H](CC(C)C)NC(=O)[C@H](C)N(C)C(=O)[C@H](Cc3ccc(C(=O)O)cc3)NC(=O)[C@H](Cc3ccc(-c4ccccc4)cc3)NC(=O)[C@H](Cc3ccc(C(=O)O)cc3)NC2=O)c1` (stereo partly drawn) [Example 2538] ({CH2CO}-[Thr(3ξ)][Phe(4-COOH)]D[Phe(3-Me)][Phe(4-COOH)][Bip][Phe(4-COOH)][NMeA][dL][Dab][Cha]VEC[Dab][AEEA][AEEA][Aun]-OH; thioether N-14), the IC50 came to 12.4 nM.
